Results: patent US20140155445A1, “Compounds and Methods for Treating Cancer and Diseases of the Central Nervous System” (Osta Biotechnologies Inc., priority 2007, published 2014)

Columns and labels:
[1] = system: SKMEL-V+ cells; assay: Melanoma efficacy study of QC-199, SKMEL-V+ cells s.c. in Scid mice; assay type: in vivo, human; conditions: for reduction of tumor volume vs vehicle: 2 cycles
Protocol: BD PharMingen, San Diego, Calif.). Cryostat sections were used for CD31 staining. […] Sections were rehydrated in PBS and then blocked with 5% normal goat serum for 1 h. The sections were then incubated overnight at 4° C. with CD31 antibody diluted 1:25 in 3% BSA-PBS. […] Sections were counterstained with Harris' hematoxylin and mounted. Slides were analyzed by conventional light microscopy and photographed using color slides (Eastman Kodak, Rochester, N.Y.). Balb/c Scid mice, 6 week-old, were obtained from Charles River Laboratories, St. Zotique, PQ, Canada. The mice weighed 18-22 g. The experiments were approved by the Animal Care Committee, McGill University, Montreal. The animals were housed in individual cages (4 per cage) and were fed standard rodent chow and water ad libitum. […] When the tumors become palpable (size of a rice), mice weights were measured with a digital balance accurate to 0.05 g. […] For the infusion, mice were anesthetized using isoflurane-based system ([…] COMPACT NRB, 3975-0800-000). For the infusion, a mini pump (NE-1800, New Era Pump Systems, Inc.) was used to infuse the compound via the tail vein during a 2 h period. […] At experiment termination, mice were anesthetized with isoflurane and sacrificed by cervical dislocation. Tumors were dissected and tumor weights were measured using a digital balance.

[2] = system: SKMEL 28-V+ cells (human melanoma); assay: Melanoma model SKMEL-V+ in SCID mice (combination study); assay type: in vivo; conditions: QC-56 60 mg/kg/ip; Dacarbazine 55 mg/kg
Protocol: SKMEL 28-V+ cells (human melanoma). These cells were originally from the ATCC and then engineered to overexpress VEGF. […] The cells were tested to be free of mycoplasma.
Control groups received the vehicle alone.

[3] = system: human metastatic prostate cancer PC-3M cells; assay: Orthotopic PC-3M prostate cancer model in SCID mice; assay type: in vivo
From the text: PC-3 & PC-3M (human prostate carcinoma). The PC-3 human prostate cancer cell line was originally obtained from the American Type Culture Collection (Rockville, Md.). The PC-3M cell line was kindly provided by Dr. Issac (MD Anderson Cancer Center). This cell variant was derived from a liver metastasis produced by the parental PC-3 cells growing in the spleen of a nude mouse [Pettaway C A, Pathak S, Greene G, et al. Selection of highly metastatic variants of different human prostate carcinomas utilizing orthotopic implantation in nude mice.
Male SCID mice were housed in laminar flow under specific pathogen-free conditions and used at 8-9 weeks of age. Animals were maintained in the LDI facilities approved by the Laboratory Animal Care in accordance with current Canadian regulations and standards for the use of animals for research.
Mice were anesthesized with isofluorane given by inhalation and placed in a supine position. […] A low midline incision was made and the prostate was exposed. Fifty microliters of HBSS containing 1×10^6 cells was injected into a lateral lobe of the prostate. The wound was closed with surgical metal clips in two layers, the muscle layer first and then the skin layer using stainless steel clips (autoclips: 9 mm; Clay Adams Inc., Parsippany, N.J.). […] Control groups received the vehicle alone. Taxol™ was given either ip or iv as indicated.
Primary tumors in the prostate were excised, measured, and weighed. When applicable, immunohistochemistry and H&E staining were conducted on one part of the tumor, fixed in formalin and embedded in paraffin or OCT compound (Miles Inc., Elkhart, Ind.); the later was rapidly frozen in liquid nitrogen, and stored at −70° C. Macroscopically enlarged regional lymph nodes were harvested and the presence of metastatic disease was confirmed by histology.
The in vivo data was analyzed using the Mann-Whitney U test.

[4] = system: PC-3 (human prostate carcinoma); assay: Prostate carcinoma model PC-3 in SCID mice
From the text: • Species and strain: Mouse (Mus musculus); female SCID (MDA231 and OVCAR3), male SCID (PC-3, HCT116); male CD57 B16 mice (BL16-BL6) • Age: 6-8 weeks old. • Supplier: Charles River Laboratories, Inc., St-Constant, Quebec, Canada. • Acclimation: Mice were acclimated to laboratory conditions for approximately 1 week prior to tumor cell inoculation. • Identification: Mice were identified by ear punch combination. • Housing: Mice were housed in groups of 3-5 in a designated animal facility with a temperature of 22° C., a relative humidity of 40-50%, and a 12 hr light/dark cycle.
PC-3 (human prostate carcinoma). These cells were originally received from the ATCC. Early passage cells (tested free of mycoplasma) were grown to 60% confluence in DMEM medium supplemented with 10% fetal bovine serum, and antibiotics. Cell harvesting was performed using trypsin-EDTA solution.
Exponentially growing cells were harvested using trypsin-EDTA solution. […] Cell viability was confirmed by trypan blue staining. […] One to 2 millions cells suspended in 0.1 mL phosphate buffer solution was implanted into the mammary fat pad (MCF7) or subcutaneously into the axillary region of the right flank of recipient SCID mice. All animals were inoculated at the same site.
Mice were subjected to general examination on daily basis. […] Control groups received the vehicle alone. Chemotherapy drugs were also given by intraperitoneal route according to the schedule described below.
Primary tumor growth was monitored every second to fourth day using calipers. Relative tumor volume (cm^3) was determined by the formula:
Body weights were monitored every third to fifth day. Animals experiencing signs of discomfort were sacrificed immediately (in some cases they were replaced by spared mice). […] Mice were sacrificed by cervical dislocation and immediately subjected to full autopsy.

[5] = QC-56 30 mg/kg intraperitoneally daily for 12 days, Taxol 10 mg/kg i.p. 3 cycles
[6] = QC-56 30 mg/kg intravenously daily for 12 days, Taxol 10 mg/kg i.p. 3 cycles

Structure (SMILES)	reduction of tumor volume vs vehicle ([1]; 30 mg/kg i.v. infusion, d1, 3, 5 per cycle) [%]	reduction of tumor volume vs vehicle ([1]; 60 mg/kg i.v. infusion, d1, 3, 5 per cycle, p less than 0.05) [%]	reduction of tumor volume vs vehicle ([1]; 200 mg/kg i.v. infusion, d1, 5 per cycle, p less than 0.01) [%]	reduction of tumor volume vs vehicle ([1]; 1000 mg/kg i.v. infusion, d1, 5 per cycle, p less than 0.01) [%]	vascularization of dissected tumors (H&E staining) ([1]; QC-199 30-1000 mg/kg)	inhibition of tumor growth compared to vehicle alone [2]	tumor size on the day of sacrifice [2] [cm^3]	inhibition of tumor growth [3, 5] [%]	reduction in microscopic lymph node metastases [3, 5] [%]	inhibition of tumor growth [3, 6] [%]	reduction in microscopic lymph node metastases [3, 6] [%]	reduction in microscopic lymph node metastases ([3]; QC-56 40 mg/kg daily for 24 days, Taxol 10 mg/kg, 4 cycles) [%]	inhibition of tumor growth compared to untreated mice ([3]; QC-56 40 mg/kg daily for 24 days, Taxol 10 mg/kg, 4 cycles, 3 administrations per cycle) [%]	Body Weights (g) d8 (mean + SE) ([4]; PC-3 mice, treatment day 8) [g]	Body Weights (g) d42 (mean + SE) ([4]; PC-3 mice, treatment day 42) [g]	inhibition of tumor growth compared to vehicle alone ([4]; QC-56 60 mg/kg/ip, Taxol 10 mg/kg)
Brc1ccc(CCCCn2ccnc2)cc1.Cl [QC-199, 1-[4-(4-bromophenyl)butyl]-1H-imidazole hydrochloride]	30	52	69	78	dose dependent reduction in vascularization											
Brc1ccc(CCC2(Cn3ccnc3)OCCO2)cc1.Cl [QC-56, 1-((2-(2-(4-Bromophenyl)ethyl)-1,3-dioxolan-2-yl)methyl)-1H-imidazole hydrochloride]						approximately 42%	1.03±0.16	34	59	58	76	48	35	22.30 ± 7.88	18.10 ± 7.38	approximately 25%
